Where two headings read alike, the source gives them in different places.
Columns and labels:
Format in all cases: cell-based
[1] = system: HCV replicons containing NS5A genes from genotype 2a HCV infected humans; assay: Transient replicon (shuttle vector) assay with NS5A genes from patient isolates, genotype 2a; settings: Hepatitis C virus
[2] = system: HCV genotype 1b-Con1 replicon; assay: HCV stable subgenomic replicon cell culture assay (luciferase reporter), genotype 1b-Con1; settings: Hepatitis C virus
[3] = system: HCV replicons containing NS5A genes from genotype 2b HCV infected humans; assay: Transient replicon (shuttle vector) assay with NS5A genes from patient isolates, genotype 2b
[4] = system: HCV replicons containing NS5A genes from genotype 1b HCV infected humans; assay: Transient replicon (shuttle vector) assay with NS5A genes from patient isolates, genotype 1b
[5] = system: HCV replicon containing NS5A from genotype 3a; assay: Stable 1b-Con1 replicon cell line containing a portion of NS5A from genotype 3a (luciferase); settings: Hepatitis C virus
Procedure: (§1) This replicon construct contains a NotI restriction site upstream of NS5A, and a BlpI restriction site just after NS5A amino acid 214. Viral RNA from infected subjects was isolated according to Middleton et al., J VIROL METHODS 145:137-145 (2007) and Tripathi et al., ANTIVIRAL RES 73:40-49 (2007). RT-PCR was conducted on the RNA to generate a DNA fragment encoding NS5A amino acids 1-214. The PCR fragment incorporated NotI and BlpI compatible ends, and this fragment was ligated into a plasmid containing the 1b-Con1 replicon. Stable cell lines were generated by introducing these constructs into Huh-7 cells.
(§2) Briefly, replicon-containing cells were seeded into 96-well plates at a density of 5000 cells per well in 100 μl DMEM containing 5% FBS. The following day, compounds were diluted in dimethyl sulfoxide (DMSO) to generate a 200× stock in a series of eight half-log dilutions. The dilution series was then further diluted 100-fold in the medium containing 5% FBS. […] Luciferin solution (50 μl, Promega) was added to each well, and luciferase activity was measured with a Victor II luminometer (Perkin-Elmer). The percent inhibition of HCV RNA replication was calculated for each compound concentration and the EC50 value was calculated using nonlinear regression curve fitting to the 4-parameter logistic equation and GraphPad Prism 4 software (Halfman, METHODS ENZYMOL 74 Pt C: 481-497 (1981)). […]

[6] = system: HCV replicons containing NS5A genes from genotype 3a HCV infected humans; assay: Transient replicon (shuttle vector) assay with NS5A genes from patient isolates, genotype 3a
[7] = system: HCV replicon containing NS5A from genotype 2b; assay: Stable 1b-Con1 replicon cell line containing a portion of NS5A from genotype 2b (luciferase); settings: Hepatitis C virus
Procedure: as §1, §2

[8] = system: HCV replicon containing NS5A from genotype 4a; assay: Stable 1b-Con1 replicon cell line containing a portion of NS5A from genotype 4a (luciferase); settings: Hepatitis C virus
Procedure: as §1, §2

[9] = system: HCV genotype 1a-H77 replicon; assay: HCV stable subgenomic replicon cell culture assay (luciferase reporter), genotype 1a-H77; settings: Hepatitis C virus
[10] = system: HCV replicons containing NS5A genes from genotype 6a HCV infected humans; assay: Transient replicon (shuttle vector) assay with NS5A genes from patient isolates, genotype 6a
[11] = system: HCV replicon containing NS5A from genotype 5a; assay: Stable 1b-Con1 replicon cell line containing a portion of NS5A from genotype 5a (luciferase); settings: Hepatitis C virus
Procedure: as §1, §2

[12] = system: HCV replicon containing NS5A from genotype 2a; assay: Stable 1b-Con1 replicon cell line containing a portion of NS5A from genotype 2a (luciferase); settings: Hepatitis C virus
Procedure: as §1, §2

[13] = system: HCV replicon containing NS5A from genotype 6a; assay: Stable 1b-Con1 replicon cell line containing a portion of NS5A from genotype 6a (luciferase); settings: Hepatitis C virus
Procedure: as §1, §2

[14] = read-out: Mean EC50, pM, ± Std. Dev.

COC(=O)N[C@H](C(=O)N1CCC[C@H]1C(=O)Nc1ccc([C@@H]2CC[C@@H](c3ccc(NC(=O)[C@@H]4CCCN4C(=O)[C@@H](NC(=O)OC)C(C)C)cc3)N2c2ccc(C(C)(C)C)cc2)cc1)C(C)C [Compound 1, dimethyl (2S,2′S)-1,1′-((2S,2′S)-2,2′-(4,4′-((2S,5 S)-1-(4-tert-butylphenyl)pyrrolidine-2,5-diyl)bis(4,1-phenylene))bis(azanediyl)bis(oxomethylene)bis(pyrrolidine-2,1-diyl))bis(3-methyl-1-oxobutane-2,1-diyl)dicarbamate]
EC50 ([1]; Genotype 2a, isolate 34021): 5.07 pM
EC50 ([1]; Genotype 2a, isolate 84836): 11.3 pM
EC50 ([1]; Genotype 2a, isolate 88935): 2.56 pM
EC50 ([1]; Genotype 2a, isolate 88939): 2.03 pM
EC50 ([1]; Genotype 2a, isolate 91106): 3.39 pM
EC50 ([1]; Genotype 2a, isolate 10124423): 3.46 pM
EC50 ([1]; Genotype 2a, isolate U01): 4.79 pM
EC50 ([1]; read-out: EC50, pM, Mean ± Std. Dev., mean of the genotype 2a isolates (methionine at NS5A position 31)): 3.8 pM
EC50 ([2]; Genotype 1b-Con1 replicon, 0% human plasma (5% fetal bovine serum), read-out: Mean EC50, pM, ± Std. Dev.): 5 ± 1.9 pM
EC50 ([2]; against HCV genotype 1b (summary statement), read-out: EC50 value): < 20 pM
EC50 ([3]; Hepatitis C virus, Genotype 2b, isolate 48477): 1.11 pM
EC50 ([3]; Hepatitis C virus, Genotype 2b, isolate 51629, variant F28): 44.7 pM
EC50 ([3]; Hepatitis C virus, Genotype 2b, isolate 9992612): 5.15 pM
loss in activity ([3]; genotype 2b sample containing L28F variant): 75 fold
EC50 ([3]; read-out: EC50, pM, Mean ± Std. Dev., mean of 13/14 genotype 2b samples (without the L28F sample)): 1.08 ± 1.23 pM
EC50 ([4]; Hepatitis C virus, Genotype 1b, isolate 1393): 1.15 pM
EC50 ([4]; Hepatitis C virus, Genotype 1b, isolate 4377): 1.53 pM
EC50 ([4]; Hepatitis C virus, Genotype 1b, isolate 4386): 1.21 pM
EC50 ([4]; Hepatitis C virus, Genotype 1b, isolate 4410): 1.2 pM
EC50 ([4]; Hepatitis C virus, Genotype 1b, isolate 9432): 1.12 pM
EC50 ([4]; Hepatitis C virus, read-out: EC50, pM, Mean ± Std. Dev, mean of the 11 genotype 1b clinical isolates): 1 pM
EC50 ([4]; read-out: EC50, pM, Mean ± Std. Dev, mean of the 11 genotype 1b clinical isolates): 1.03 ± 0.23 pM
EC50 ([5]; read-out: EC50 value): < 20 pM
EC50 [5, 14]: 19.3 ± 5.8 pM
EC50 ([6]; Genotype 3a, isolate 55500, variant K30 (A30K)): 55.2 pM
EC50 ([6]; Hepatitis C virus, Genotype 3a, isolate 7153-55): 2.32 pM
EC50 ([6]; Hepatitis C virus, Genotype 3a, isolate 9110-47): 3.87 pM
EC50 ([6]; Hepatitis C virus, Genotype 3a, isolate 48557): 11.4 pM
EC50 ([6]; Hepatitis C virus, Genotype 3a, isolate 55500, variant K30 (A30K)): 55 pM
EC50 ([6]; Hepatitis C virus, Genotype 3a, isolate 55510): 3.03 pM
EC50 ([6]; Hepatitis C virus, Genotype 3a, isolate 55534): 3.28 pM
EC50 ([6]; Hepatitis C virus, Genotype 3a, isolate 57223): 4.14 pM
EC50 ([6]; Hepatitis C virus, Genotype 3a, isolate 57314): 2.02 pM
EC50 ([6]; Hepatitis C virus, Genotype 3a, isolate 85501): 3.05 pM
EC50 ([6]; Hepatitis C virus, Genotype 3a, isolate 89241, variant V28): 2.71 pM
EC50 ([6]; Hepatitis C virus, Genotype 3a, isolate 95079): 15.2 pM
EC50 ([6]; Hepatitis C virus, Genotype 3a, isolate 9810069): 2.52 pM
EC50 ([6]; Hepatitis C virus, read-out: EC50, pM, Mean ± Std. Dev., mean of 12 of the 13 genotype 3a samples (without the A30K sample)): 4.5 pM
EC50 ([6]; read-out: EC50, pM, Mean ± Std. Dev., mean of 12 of the 13 genotype 3a samples (without the A30K sample)): 4.54 ± 4.26 pM
EC50 ([7]; read-out: EC50 value): < 20 pM
EC50 [7, 14]: 4.3 ± 1.2 pM
EC50 ([8]; read-out: EC50 value): < 20 pM
EC50 [8, 14]: 1.71 ± 0.88 pM
EC50 ([9]; Genotype 1a-H77 replicon, 0% human plasma (5% fetal bovine serum), read-out: Mean EC50, pM, ± Std. Dev.): 14.1 ± 6.8 pM
EC50 ([9]; against HCV genotype 1a (summary statement), read-out: EC50 value): < 20 pM
EC50 ([9]; genotype 1a and 1b replicons together, in the presence of 5% FBS, read-out: mean EC50 values): 5 to 14 pM
EC50 ([10]; Hepatitis C virus, isolate 1110880, variant L28): 42 pM
EC50 ([10]; Hepatitis C virus, isolate 1110880-L28F, variant F28 (L28F mutation introduced)): 68 pM
EC50 ([10]; isolate 1110880, variant L28): 42.3 pM
EC50 ([10]; isolate 1110880-L28F, variant F28 (L28F mutation introduced)): 68 pM
EC50 ([11]; read-out: EC50 value): < 20 pM
EC50 [11, 14]: 4.3 ± 0.9 pM
EC50 ([12]; read-out: EC50 value): < 20 pM
EC50 [12, 14]: 12.4 ± 2.7 pM
EC50 ([13]; read-out: EC50 value): < 500 pM
EC50 [13, 14]: 415 ± 97 pM

Source: patent US20140080886A1, “Methods for Treating HCV” (priority 2012, published 2014)
